Here are results for 39 compounds from US11851440B2, “Modulators of eukaryotic initiation factor 2B, compositions and methods” (Denali Therapeutics Inc., priority 2017, dated 2023).

pIC50: −log10 of the molar value.

As a reminder, the pIC50 is the IC50 on a negative log10 scale, so that one unit is a factor of ten.

The subject of the first assay is ISR pathway (ATF4 translation). Description: ATF4 Nano Luciferase reporter integrated stress response (ISR) assay in H4 ATF4-NLuc cells. The following applies: Homo sapiens, H4 ATF4-NLuc (clone 17) cells; compound 30 minutes, then 50 um sodium arsenite for 6 hours; luminescence readout. In general terms: Reporter assays use an easily measured gene product as a stand-in for the process of interest.
The compound `O=C(COc1ccc(C(F)(F)F)nc1)NC12CC(n3cnc(C4CC(OC(F)(F)F)C4)c3)(C1)C2` (stereo not shown) [Example 151] had a pIC50 of 7.45.

The same assay, now with this note: Homo sapiens, read-out: Activity (IC50), H4 ATF4-NLuc (clone 17) cells; compound 30 minutes, then 50 um sodium arsenite for 6 hours; luminescence readout.
As to `O=C(CO[C@H]1C[C@@H](OC(F)(F)F)C1)NC12CC(c3cn(-c4ccc(Cl)c(F)c4)nn3)(C1)C2` [Example 77, N-[3-[1-(4-chloro-3-fluoro-phenyl)triazol-4-yl]-1-bicyclo[1.1.1]pentanyl]-2-[3-cis-(trifluoromethoxy)cyclobutoxy]acetamide], the pIC50 was above 6.00.
Consider `O=C(COc1cccc(OC(F)(F)F)c1)NC12CC(c3nnc([C@H]4C[C@@H](OC(F)(F)F)C4)o3)(C1)C2` [Example 173], for which the pIC50 is above 6.00.
Consider `O=C(COc1ccc(F)cc1)NC12CC(c3nnc([C@H]4C[C@H](OC(F)(F)F)C4)o3)(C1)C2` [Example 72, 2-(4-fluorophenoxy)-N-[3-[5-[3-trans-(trifluoromethoxy)cyclobutyl]-1,3,4-oxadiazol-2-yl]-1-bicyclo[1.1.1]pentanyl]acetamide], for which the pIC50 is above 6.00.
As to `O=C(NC12CC(c3nnc([C@H]4C[C@@H](OC(F)(F)F)C4)o3)(C1)C2)C1Cc2cc(Cl)ccc2O1` (stereo partly drawn) [Example 76, 5-chloro-N-[3-[5-[3-cis-(trifluoromethoxy)cyclobutyl]-1,3,4-oxadiazol-2-yl]-1-bicyclo[1.1.1]pentanyl]-2,3-dihydrobenzofuran-2-carboxamide], the pIC50 is above 6.00.
On the same count and under the same terms, the value for `O=C(COc1ccc(Cl)c(F)c1)NC12CC(c3nnc(C4CCC4)o3)(C1)C2` [Example 25, 2-(4-chloro-3-fluoro-phenoxy)-N-[1-(5-cyclobutyl-1,3,4-oxadiazol-2-yl)-3-bicyclo[1.1.1]pentanyl]acetamide] was above 6.00; that for `O=C(CO[C@H]1C[C@@H](OC(F)(F)F)C1)NC12CC(c3cc(-c4ccc(Cl)cc4)no3)(C1)C2` [Example 251] was above 6.00.
The same measure, in the same setting: the value for `O=C(COCc1cncc(Cl)c1)NC12CC(c3nnc([C@H]4C[C@@H](OC(F)(F)F)C4)o3)(C1)C2` [Example 97, 2-[(5-chloro-3-pyridyl)methoxy]-N-[3-[5-[3-cis-(trifluoromethoxy)cyclobutyl]-1,3,4-oxadiazol-2-yl]-1-bicyclo[1.1.1]pentanyl]acetamide] was 5.00 to 6.00.
As to `O=C(COc1ccc(Cl)c(F)c1)NC12CC(c3cnn([C@H]4C[C@@H](OC(F)(F)F)C4)n3)(C1)C2` [Example 79, 2-(4-chloro-3-fluoro-phenoxy)-N-[3-[2-[3-cis-(trifluoromethoxy)cyclobutyl]triazol-4-yl]-1-bicyclo[1.1.1]pentanyl]acetamide], the pIC50 was above 6.00.
Regarding `O=C(NC12CC(c3nnc([C@H]4C[C@@H](OC(F)(F)F)C4)o3)(C1)C2)c1cc2ccc(Cl)cc2nn1` [Example 183], the negative-log IC50 (pIC50) was above 6.00.
On the same count and under the same terms, the value for `Cc1cc(F)ccc1-c1cn(C23CC(NC(=O)CO[C@H]4C[C@@H](OC(F)(F)F)C4)(C2)C3)cn1` [Example 142] was above 6.00; that for `O=C(CO[C@H]1C[C@@H](OC(F)(F)F)C1)NC12CC(c3noc(-c4ccc(Cl)cc4)n3)(C1)C2` [Example 203] was above 6.00.
On the same count and under the same terms, with `O=C(COc1ccc(F)c(F)c1)NC12CC(n3cnc([C@H]4C[C@H](OC(F)(F)F)C4)c3)(C1)C2` [Example 144] the figure was above 6.00; with `O=C(COC1CCC1)NC12CC(c3cn(-c4ccc(Cl)cc4)nn3)(C1)C2` [Example 28, N-[1-[1-(4-Chlorophenyl)triazol-4-yl]-3-bicyclo[1.1.1]pentanyl]-2-(cyclobutoxy)acetamide], above 6.00; with `O=C(NC12CC(c3nnc([C@H]4C[C@@H](OC(F)(F)F)C4)o3)(C1)C2)c1cc(C2CC2)on1` [Example 98, 5-cyclopropyl-N-[3-[5-[3-cis-(trifluoromethoxy)cyclobutyl]-1,3,4-oxadiazol-2-yl]-1-bicyclo[1.1.1]pentanyl]isoxazole-3-carboxamide], 5.00 to 6.00.
Still for that read-out and setting: with `O=C(CO[C@H]1C[C@@H](OC(F)(F)F)C1)NC12CC(c3nnc(-c4cncc(F)c4)o3)(C1)C2` [Example 73, N-[1-[5-(5-fluoro-3-pyridyl)-1,3,4-oxadiazol-2-yl]-3-bicyclo[1.1.1]pentanyl]-2-[3-cis-(trifluoromethoxy)cyclobutoxy]acetamide] the figure was 5.00 to 6.00.
As for `O=C(COc1ccc(Cl)c(F)c1)NC12CC(NC(=O)OC[C@H]3C[C@H](OC(F)(F)F)C3)(C1)C2` [Example 238], the pIC50 is above 6.00.
Same read-out and setting: the value for `O=C(CO[C@H]1C[C@@H](OC(F)(F)F)C1)NC12CC(n3cnc(C4CC(OC(F)(F)F)C4)c3)(C1)C2` (stereo partly shown) [Example 52] was above 6.00; that for `O=C(CO[C@H]1C[C@@H](OC(F)(F)F)C1)NC12CC(c3cn(-c4ccc(Cl)c(F)c4)cn3)(C1)C2` [Example 228] was above 6.00.
The same measure, in the same setting: the value for `CC1C(c2nnc(C34CC(NC(=O)COc5ccc(Cl)c(F)c5)(C3)C4)o2)CN1CC(F)(F)F` (stereo not shown) [Example 121, 2-(4-chloro-3-fluoro-phenoxy)-N-[3-[5-[2-methyl-1-(2,2,2-trifluoroethyl)azetidin-3-yl]-1,3,4-oxadiazol-2-yl]-1-bicyclo[1.1.1]pentanyl]acetamide] was above 6.00.
For the compound `O=C(NC12CC(c3nnc([C@H]4C[C@@H](OC(F)(F)F)C4)o3)(C1)C2)c1cn(CCOC(F)(F)F)cn1` [Example 277], the pIC50 was above 6.00.
Still for that read-out and setting: the value for `CC(COCC(=O)NC12CC(n3cnc(-c4ccc(Cl)c(F)c4)c3)(C1)C2)OC(F)(F)F` (stereo not shown) [Example 274] was above 6.00.
The same measure, in the same setting: the value for `O=C(CO[C@H]1C[C@@H](OC(F)(F)F)C1)NC12CC(n3cc(-c4ccc(Cl)cc4)oc3=O)(C1)C2` [Example 198] was above 6.00; that for `O=C(COc1ccc(Cl)cc1)NC12CC(N3CC(C4CCC4)=CC3=O)(C1)C2` [Example 214] was above 6.00.
For the compound `O=C(NC12CC(c3nnc([C@H]4C[C@@H](OC(F)(F)F)C4)o3)(C1)C2)c1cc2ccc(Cl)cn2n1` [Example 171], the negative-log IC50 (pIC50) was above 6.00.
On the same count and under the same terms, the value for `O=C(COc1ccc(Cl)c(F)c1)NC12CC(c3nnc([C@H]4C[C@H](C(F)(F)F)C4)o3)(C1)C2` [Example 44, 2-(4-chloro-3-fluoro-phenoxy)-N-[1-[5-trans-[3-(trifluoromethyl)cyclobutyl]-1,3,4-oxadiazol-2-yl]-3-bicyclo[1.1.1]pentanyl]acetamide] was above 6.00; that for `O=C(COc1ccc(Cl)c(F)c1)NC12CC(c3nnc([C@H]4C[C@@H](n5nccn5)C4)o3)(C1)C2` [Example 244] was above 6.00.
On to `O=C(NC12CC(c3nnc(-c4ccc(Cl)c(F)c4)o3)(C1)C2)[C@H]1CC[C@H](COC(F)(F)F)CC1` [Example 235], for which the pIC50 is above 6.00.
As for `O=C(CO[C@H]1C[C@@H](OC(F)(F)F)C1)NC12CC(c3nnc([C@H]4C[C@@H](COC(F)(F)F)C4)o3)(C1)C2` [Example 106, 2-[3-cis-(trifluoromethoxy)cyclobutoxy]-N-[3-[5-[3-cis-(trifluoromethoxymethyl)cyclobutyl]-1,3,4-oxadiazol-2-yl]-1-bicyclo[1.1.1]pentanyl]acetamide], the pIC50 was above 6.00.
Still for that read-out and setting: with `O=C(COc1ccc(Cl)c(F)c1)NC12CC(c3nnc(C4CCN(CC(F)(F)F)C4)o3)(C1)C2` (stereo not shown) [Example 16, 2-(4-chloro-3-fluoro-phenoxy)-N-[1-[5-[1-(2,2,2-trifluoroethyl)pyrrolidin-3-yl]-1,3,4-oxadiazol-2-yl]-3-bicyclo[1.1.1]pentanyl]acetamide] the figure was above 6.00; with `O=C(COc1cccc(Cl)c1)NC12CC(c3nnc([C@H]4C[C@@H](OC(F)(F)F)C4)o3)(C1)C2` [Example 156], above 6.00.
On the same count and under the same terms, the value for `O=C(COC1CCC1)NC12CC(c3nnc(COc4ccc(Cl)c(F)c4)o3)(C1)C2` [Example 46] was above 6.00; that for `O=C(CO[C@H]1C[C@@H](OC(F)(F)F)C1)NC12CC(n3cnc(C4=NCC(C(F)(F)F)O4)c3)(C1)C2` (stereo partly shown) [Example 267] was above 6.00.
With `CC(c1nnc(C23CC(NC(=O)COc4ccc(Cl)c(F)c4)(C2)C3)o1)C1CC1` (stereo not shown) [Example 8, 2-(4-chloro-3-fluoro-phenoxy)-N-[1-[5-(1-cyclopropylethyl)-1,3,4-oxadiazol-2-yl]-3-bicyclo[1.1.1]pentanyl]acetamide], the negative logarithm of the IC50 (pIC50) is above 6.00.
The same measure, in the same setting: with `O=C(COc1ccc(Cl)cc1)NC12CC(c3nnc(C4CCCO4)o3)(C1)C2` (stereo not shown) [Example 2, 2-(4-Chlorophenoxy)-N-[3-(5-tetrahydrofuran-2-yl-1,3,4-oxadiazol-2-yl)-1-bicyclo[1.1.1]pentanyl]acetamide] the figure was 5.00 to 6.00; with `O=C(CO[C@H]1C[C@@H](OC(F)(F)F)C1)NC12CC(c3nnc(-c4ccc(Cl)c(F)c4)o3)(C1)C2` [Example 12, N-[3-[5-(4-chloro-3-fluoro-phenyl)-1,3,4-oxadiazol-2-yl]-1-bicyclo[1.1.1]pentanyl]-2-[cis-3-(trifluoromethoxy)cyclobutoxy]acetamide], above 6.00; with `C[C@H]1C[C@@H]1c1nnc(C23CC(NC(=O)COc4ccc(Cl)c(F)c4)(C2)C3)o1` (relative stereo) [Example 9, 2-(4-chloro-3-fluoro-phenoxy)-N-[1-[5-[(trans)-2-methylcyclopropyl]-1,3,4-oxadiazol-2-yl]-3-bicyclo[1.1.1]pentanyl]acetamide], above 6.00.
The same measure, in the same setting: the value for `O=C(COc1ccc(Cl)c(F)c1)NC12CC(C3=NOC(C4CCCC4)C3)(C1)C2` (stereo not shown) [Example 21, 2-(4-chloro-3-fluorophenoxy)-N-(3-(5-cyclopentyl-4,5-dihydroisoxazol-3-yl)bicyclo[1.1.1]pentan-1-yl)acetamide] was above 6.00.
Same read-out and setting: the value for `O=C(COc1ccc(C(F)(F)F)nc1)NC12CC(n3cnc(C4CC(OC(F)(F)F)C4)c3)(C1)C2` (stereo not shown) [Example 151] was above 6.00.

The same assay, now with this note: read-out: Activity (IC50); H4 ATF4-NLuc (clone 17) cells; compound 30 minutes, then 50 um sodium arsenite for 6 hours; luminescence readout.
Regarding `O=C(COC1CC(OC(F)(F)F)C1)NC12CC(c3nnc(C4C[C@H]4COC(F)(F)F)o3)(C1)C2` (single isomer, unassigned) [Example 90, 2-[cis-3-(trifluoromethoxy)cyclobutoxy]-N-[3-[5-[cis-2-(trifluoromethoxymethyl)cyclopropyl]-1,3,4-oxadiazol-2-yl]-1-bicyclo[1.1.1]pentanyl]acetamide], the negative logarithm of the IC50 (pIC50) is below 5.00.
